The record followed here is PubChem BioAssay (NCI).

Among the test systems are IGROV1 ovarian; SF-539 CNS; RXF 393 renal; LOX IMVI melanoma; NCI-H460 lung; A498 renal; K-562 leukemia; CCRF-CEM leukemia; MCF7 breast; BT-549 breast.
Assay in all cases: growth of human tumour cells (NCI), 48 h

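Test compounds were applied to cells in 96-well plates for 48 hours at 5 doses. Here, GI50 denotes the concentration required for 50% inhibition of growth. The concentration for full growth arrest is given as TGI.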

Take `Nc1ncnc2c1ncn2CCCC(c1ccccc1)P(=O)(O)O` (centres undefined): the TGI with IGROV1 ovarian, in the test on SF-539 CNS, in the test with RXF 393 renal, with LOX IMVI melanoma, in the test with NCI-H460 lung and with A498 renal was greater than 100 µM each time.

Take `COc1ccc(OC)c(NC2=NCCO2)c1`: the TGI with IGROV1 ovarian, in the test on SF-539 CNS, with K-562 leukemia, in the test on CCRF-CEM leukemia, in the test with RXF 393 renal and with MCF7 breast was greater than 100 µM in each case. Further, the TGI in the test on LOX IMVI melanoma, with NCI-H460 lung and in the test with A498 renal was greater than 100 µM throughout.

With `CCOC(=O)CCC(NC(=O)c1ccc(Nc2nc3cc(C(F)(F)F)ccc3nc2C(=O)OCC)cc1)C(=O)OCC` (centres undefined), the TGI in the test with IGROV1 ovarian is 43.5 µM; in the test with BT-549 breast, 29.8 µM; in the test with SF-539 CNS, 25.2 µM; with K-562 leukemia, greater than 100 µM; in the test with CCRF-CEM leukemia, greater than 100 µM; in the test with LOX IMVI melanoma, 36.2 µM. The same compound had a TGI in the test with NCI-H460 lung of 33.9 µM.

With `CC(C)(C)c1ccc(O)c(C(c2ccc([N+](=O)[O-])cc2)c2cc(C(C)(C)C)ccc2O)c1`, the TGI with IGROV1 ovarian is 4.37 µM; in the test with SF-539 CNS it was 3.46 µM; with K-562 leukemia, 7.35 µM; with CCRF-CEM leukemia, 7.53 µM; with RXF 393 renal it was 3.66 µM; in the test on MCF7 breast, 3.83 µM.

Regarding `NC(=O)COc1c(Br)cc(Br)cc1Br`, the TGI in the test with SF-539 CNS, with K-562 leukemia, in the test on CCRF-CEM leukemia and in the test with NCI-H460 lung was greater than 100 µM throughout.

`C[N+](C)(C)CCOC(=O)/C=C/c1cnc[nH]1`: the TGI in the test on IGROV1 ovarian, in the test on SF-539 CNS, in the test with K-562 leukemia, with CCRF-CEM leukemia, in the test on RXF 393 renal and with MCF7 breast was greater than 500 µM in each case. For the same compound, the TGI with LOX IMVI melanoma, with NCI-H460 lung and in the test on A498 renal was greater than 500 µM in each case.

Turning to `Nc1ncnc2c1sc(=S)n2-c1ccccc1`, the TGI in the test on IGROV1 ovarian, with SF-539 CNS, in the test with K-562 leukemia, in the test with CCRF-CEM leukemia, in the test with RXF 393 renal and in the test with LOX IMVI melanoma was greater than 100 µM each time. Besides, the TGI with NCI-H460 lung and in the test with A498 renal was greater than 100 µM throughout.

On to `COc1cccc2c1C(=O)c1c(O)c3c(c(O)c1C2=O)C[C@@](O)(C(=O)CN1CCOCC1)C[C@@H]3OC1CC(N)C(O)C(C)O1` (some centres undefined), for which the TGI was greater than 90.6 µM in the test on IGROV1 ovarian; 23.6 µM in the test with SF-539 CNS; 61.7 µM in the test with K-562 leukemia; greater than 23.1 µM with CCRF-CEM leukemia; 23.9 µM in the test on RXF 393 renal; greater than 100 µM in the test with MCF7 breast. The TGI with LOX IMVI melanoma is 45.3 µM; in the test on NCI-H460 lung, greater than 69.9 µM; in the test with A498 renal, 31.1 µM. In addition, the GI50 in the test on CCRF-CEM leukemia was 0.964 µM.

For `Cn1c(=O)c2c(nc3n2CCC(=O)N3CCCCl)n(C)c1=O`, the TGI in the test with IGROV1 ovarian, in the test on BT-549 breast, in the test on K-562 leukemia, with CCRF-CEM leukemia, in the test on LOX IMVI melanoma and with NCI-H460 lung was greater than 100 µM throughout. This compound yielded a TGI in the test with A498 renal greater than 100 µM.

In the case of `O=C(O)CN1CCCC(Cc2c[nH]c3ccccc23)C1` (centres undefined), the TGI in the test with IGROV1 ovarian, in the test with BT-549 breast, with SF-539 CNS, with K-562 leukemia, in the test on RXF 393 renal and in the test with LOX IMVI melanoma was greater than 100 µM in each case.

Turning to `COc1cc(N)c2[nH]c3c(C)ccc(C)c3c2c1`, the TGI with SF-539 CNS, in the test with K-562 leukemia, in the test with CCRF-CEM leukemia, in the test on LOX IMVI melanoma and in the test on NCI-H460 lung was greater than 100 µM in each case.

For `Cc1ccc2n(c1)cc(-c1ccc(/C=N/NC(=N)N/N=C/c3ccc(-c4cn5cc(C)ccc5[n+]4C)cc3)cc1)[n+]2C`, the TGI in the test with IGROV1 ovarian, in the test on SF-539 CNS, in the test on CCRF-CEM leukemia, in the test on MCF7 breast and with NCI-H460 lung was greater than 100 µM each time.

For the compound `COc1ccc(C2S/C(=C\c3cccc(OC)c3)C(=O)N2NC(=O)Cc2ccccc2)cc1` (centres undefined), the TGI with IGROV1 ovarian, in the test on SF-539 CNS, with K-562 leukemia, in the test on CCRF-CEM leukemia, in the test on RXF 393 renal and in the test with LOX IMVI melanoma was greater than 100 µM in each case. Moreover, the TGI in the test with NCI-H460 lung and with A498 renal was greater than 100 µM throughout.

For `COC(=O)CCCC1(CCCC(=O)OC)CCCCCCCCC(CCCC(=O)OC)(CCCC(=O)OC)C(=O)C1=O`, the TGI was 47.6 µM in the test on IGROV1 ovarian; 61.3 µM in the test with SF-539 CNS; 37.8 µM with K-562 leukemia; 69.9 µM in the test on RXF 393 renal; greater than 100 µM in the test on MCF7 breast; 48.5 µM in the test on LOX IMVI melanoma. The TGI in the test with NCI-H460 lung and with A498 renal was greater than 100 µM each time.

With `CCCCCCCCCC(O)CC(=O)c1c(O)cccc1O` (centres undefined), the TGI is 36.8 µM in the test with IGROV1 ovarian; 40.7 µM in the test on SF-539 CNS; 49.5 µM in the test with K-562 leukemia; greater than 100 µM in the test on CCRF-CEM leukemia; 34.8 µM in the test with RXF 393 renal; 50.3 µM in the test with MCF7 breast. In addition, the TGI with LOX IMVI melanoma worked out at 46 µM; with A498 renal it was 88.5 µM.

On to `Cc1c(OCCCOc2ccc3c(=O)cc(-c4ccccc4)oc3c2C)ccc2c(=O)cc(-c3ccccc3)oc12`, for which the TGI in the test on IGROV1 ovarian, in the test on SF-539 CNS, in the test on K-562 leukemia, in the test on CCRF-CEM leukemia, in the test with RXF 393 renal and in the test on LOX IMVI melanoma was greater than 100 µM throughout. The TGI in the test on NCI-H460 lung and in the test on A498 renal was greater than 100 µM each time.

On to `CCNC(=O)NNc1ncnc2c1c(-c1ccc(Cl)cc1)cn2-c1ccc(C)cc1`, for which the TGI in the test with IGROV1 ovarian was 37.7 µM; in the test with SF-539 CNS, 33.2 µM; in the test with K-562 leukemia, 46.5 µM; in the test on CCRF-CEM leukemia, 43.1 µM; with RXF 393 renal it was 33.1 µM; with LOX IMVI melanoma, 36.4 µM. For the same compound, the figures for the TGI in the test on NCI-H460 lung and in the test with A498 renal were 48.5 µM and 30.6 µM, respectively.

With `COc1cc2c(c(O)c1C)C(=O)CC(c1ccccc1)O2` (centres undefined), the TGI in the test with IGROV1 ovarian is greater than 100 µM; in the test with SF-539 CNS, greater than 100 µM; in the test with K-562 leukemia, greater than 100 µM; with CCRF-CEM leukemia, greater than 10 µM; in the test on LOX IMVI melanoma, greater than 10 µM; in the test with NCI-H460 lung it was greater than 10 µM. In addition, in the test with A498 renal, the TGI was greater than 100 µM.
